Laboratory results from the NIST ThermoML archive (doi:10.1021/je060271a).

Details: Liquid, Vibrating tube method

CCCCCC(=O)OCC(COC(=O)CCCCC)(COC(=O)CCCCC)COC(=O)CCCCC [pentaerythritol tetrahexanoate]
Details	mass density [kg/m3]
323.16 K, 30799 kPa	992.6
323.16 K, 30820 kPa	992.6
323.16 K, 30845 kPa	992.6
323.16 K, 30870 kPa	992.7
323.16 K, 30895 kPa	992.6
323.16 K, 30916 kPa	992.5
323.16 K, 30942 kPa	992.7
323.16 K, 30968 kPa	992.6
323.16 K, 30994 kPa	992.7
323.16 K, 31020 kPa	992.9
323.16 K, 31046 kPa	992.7
323.16 K, 31070 kPa	992.8
323.16 K, 31096 kPa	992.8
323.16 K, 31122 kPa	992.8
323.16 K, 31139 kPa	992.8
323.16 K, 31159 kPa	992.8
323.16 K, 31180 kPa	992.8
323.16 K, 31200 kPa	992.8
323.16 K, 31217 kPa	992.9
323.16 K, 31237 kPa	992.9
323.16 K, 31258 kPa	992.9
323.16 K, 31278 kPa	993
323.16 K, 31295 kPa	992.7
323.16 K, 31315 kPa	993
323.16 K, 31335 kPa	992.9
323.16 K, 31356 kPa	993
323.16 K, 31378 kPa	992.9
323.16 K, 31395 kPa	992.9
323.16 K, 31412 kPa	993
323.16 K, 31433 kPa	993.1
323.16 K, 31554 kPa	993.1
323.16 K, 31575 kPa	993.1
323.16 K, 31592 kPa	993.1
323.16 K, 31613 kPa	993
323.16 K, 31635 kPa	993
323.16 K, 31777 kPa	993.1
323.16 K, 31798 kPa	993.2
323.16 K, 31820 kPa	993.2
323.16 K, 31838 kPa	993.2
323.16 K, 31860 kPa	993.2
323.16 K, 31882 kPa	993.2
323.16 K, 31905 kPa	993.3
323.16 K, 31927 kPa	993.3
323.16 K, 31950 kPa	993.2
323.16 K, 31973 kPa	993.4
323.16 K, 31996 kPa	993.3
323.16 K, 32016 kPa	993.3
323.16 K, 32032 kPa	993.4
323.16 K, 32048 kPa	993.4
323.16 K, 32064 kPa	993.3
323.16 K, 32081 kPa	993.4
323.16 K, 32097 kPa	993.3
323.16 K, 32114 kPa	993.3
323.16 K, 32132 kPa	993.4
323.16 K, 32149 kPa	993.3
323.16 K, 32165 kPa	993.4
323.16 K, 32183 kPa	993.4
323.16 K, 32202 kPa	993.5
323.16 K, 32221 kPa	993.5
323.16 K, 32240 kPa	993.4
323.16 K, 32260 kPa	993.5
323.16 K, 32366 kPa	993.4
323.16 K, 32374 kPa	993.5
323.16 K, 32380 kPa	993.5
323.16 K, 32383 kPa	993.5
323.17 K, 1378.9 kPa	973.7
323.17 K, 2060 kPa	974
323.17 K, 2070.1 kPa	974.2
323.17 K, 15528 kPa	983.3
323.17 K, 15553 kPa	983.3
323.17 K, 15582 kPa	983.4
323.17 K, 15606 kPa	983.4
323.17 K, 15845 kPa	983.4
323.17 K, 15865 kPa	983.5
323.17 K, 15889 kPa	983.4
323.17 K, 15909 kPa	983.5
323.17 K, 15932 kPa	983.5
323.17 K, 15952 kPa	983.3
323.17 K, 15976 kPa	983.5
323.17 K, 16001 kPa	983.4
323.17 K, 16021 kPa	983.6
323.17 K, 16045 kPa	983.5
323.17 K, 16069 kPa	983.6
323.17 K, 16089 kPa	983.6
323.17 K, 16114 kPa	983.7
323.17 K, 16135 kPa	983.7
323.17 K, 16160 kPa	983.6
323.17 K, 16308 kPa	983.8
323.17 K, 16329 kPa	983.7
323.17 K, 16337 kPa	983.7
323.17 K, 16338 kPa	983.8
323.17 K, 16340 kPa	983.8
323.17 K, 19154 kPa	985.4
323.17 K, 19182 kPa	985.6
323.17 K, 19210 kPa	985.5
323.17 K, 19238 kPa	985.5
323.17 K, 19267 kPa	985.7
323.17 K, 19296 kPa	985.6
323.17 K, 19320 kPa	985.7
323.17 K, 19350 kPa	985.6
323.17 K, 20368 kPa	986.3
323.17 K, 20425 kPa	986.4
323.17 K, 22257 kPa	987.5
323.17 K, 22284 kPa	987.5
323.17 K, 22311 kPa	987.5
323.17 K, 22338 kPa	987.6
323.17 K, 22361 kPa	987.6
323.17 K, 22388 kPa	987.5
323.17 K, 22416 kPa	987.7
323.17 K, 22443 kPa	987.6
323.17 K, 22466 kPa	987.7
323.17 K, 22493 kPa	987.7
323.17 K, 22520 kPa	987.5
323.17 K, 25533 kPa	989.4
323.17 K, 25562 kPa	989.5
323.17 K, 25592 kPa	989.5
323.17 K, 25621 kPa	989.5
323.17 K, 25651 kPa	989.4
323.17 K, 25676 kPa	989.5
323.17 K, 25737 kPa	989.6
323.17 K, 25767 kPa	989.6
323.17 K, 25792 kPa	989.7
323.17 K, 25823 kPa	989.7
323.17 K, 25853 kPa	989.7
323.17 K, 25884 kPa	989.6
323.17 K, 25909 kPa	989.8
323.17 K, 25940 kPa	989.8
323.17 K, 25972 kPa	989.8
323.17 K, 26003 kPa	989.7
323.17 K, 26033 kPa	989.7
323.17 K, 26762 kPa	990.3
323.17 K, 26791 kPa	990.3
323.17 K, 26815 kPa	990.1
323.17 K, 26845 kPa	990.3
323.17 K, 26872 kPa	990.3
323.17 K, 26901 kPa	990.4
323.17 K, 26930 kPa	990.4
323.17 K, 26959 kPa	990.3
323.17 K, 26984 kPa	990.3
323.17 K, 27013 kPa	990.3
323.17 K, 27043 kPa	990.5
323.17 K, 27073 kPa	990.4
323.17 K, 27102 kPa	990.4
323.17 K, 27127 kPa	990.4
323.17 K, 27157 kPa	990.4
